From publication PMC6760275, “Comparison of Zebrafish Larvae and hiPSC Cardiomyocytes for Predicting Drug-Induced Cardiotoxicity in Humans” (Toxicological Sciences, 2019)
“Also recorded” adds a separate entry of the source. Read-outs that look alike come from different tables or passages of the source.

Key:
zebrafish larvae = experiment: ZeCardio cardiotoxicity screen in zebrafish larvae (heart and blood flow imaging)
Procedure: Zebrafish (Danio rerio) were mated, staged, and raised by standard methods ([Westerfield, 2000]). The library screen was performed on double transgenic larvae for Tg[cmlc2: GFP] ([Huang et al., 2003]) and Tg[gata1: DsRed] ([Traver et al., 2003]). Tg[cmlc2: GFP] expresses green fluorescent protein (GFP) in cardiomyocytes and Tg[gata1: DsRed] expresses DsRed fluorescent protein in a subset of erythrocytes.
Determination of NOEC was achieved through an Acute Toxicity test performed on AB wildtype larvae from 3 to 96 hpf, as previously described ([Cornet et al., 2017]) (see Supplementary Table 1 for NOEC data for each compound). For the cardiotoxic drug screening, double transgenic zebrafish larvae for Tg[cmlc2: GFP] and Tg[gata1: DsRed] were collected and raised in Embryo Medium (E3/60× Stock: 34.4 g NaCl, 1.52 g KCl, 5.8 g CaCl2·2H2O, 9.8 g MgSO4·7H2O, add 18 MOhm double distilled water up to 2000 ml; pH: 7.2) at 28.5°C in a 12 h light/12 h dark cycle. From 24 hpf onward, larvae were incubated with N-PhenylThioUrea (PTU) (Sigma-Aldrich, No. P7629) 0.2 mM to reduce pigmentation. Embryo medium was changed every day until 5 dpf, when double positive transgenic larvae were selected. […] Larvae were immersed in E3 with PTU 0.2 mM and Tricaine methanesulfonate (Sigma-Aldrich, No. E10521) at […] working concentration and distributed in 96-well plates in 100 µl per well. Then, 100 µl of compound solution was added at double NOEC concentration to reach the working concentration per compound: NOEC, DMSO 1%, and the final volume of 200 µl per larva per well. Negative control larvae were incubated in 200 µl 1% DMSO. Embryos were allowed to incubate in the compound solution for 4 h before. The developmental stage selected for analysis (5 dpf) was chosen because heart electrophysiological maturation and heart rhythm are stabilized from 96 hpf ([Tessadori et al., 2012]). One hundred and twenty hours post fertilization constitutes the latest stage to perform analysis after heart maturation and with conformation to ethical guidelines. Finally, the drug incubation time of 4 h was selected according to a previously established experimental set up ([Cornet et al., 2017]). Twelve embryos (1 embryo/well) were imaged for each compound, and the screening of the whole library was distributed over 15 experimental days. On each experimental day, 8 molecules were imaged: 7 drugs and the negative control 1% DMSO, to allow intraexperimental comparison.
The hardware conforming the screening platform allows zebrafish larvae sampling from multi-well plates to allow their position and automatic orientation in a glass capillary under a microscope to perform high-throughput imaging acquisition. It integrates 2 commercially available systems. First, an integrated VAST system (Union Biometrica) ([Pardo-Martin et al., 2010]), which consists of 2 complementary devices: (1) LP sampler, an automated fluid system capable of aspirating small to medium sized particles from multi-well plates and delivering them intact to the VAST BioImager, and (2) VAST BioImager, an automated fluid system, which positions zebrafish larva in a glass capillary. Once introduced in the glass capillary, the larva is recognized by an integrated imaging system and rotated to the desired angle for external imaging. Second, a Leica DM6B upright widefield microscope with a motorized Z-stage and Leica DFC9000 GTC (4.2 megapixel) CMOS camera particularly suited for high-speed fluorescent imaging applications achieves the fluorescent time-lapse imaging. The 2 systems, VAST and Leica microscope, communicate to coordinate the tasks of sampling, positioning, and imaging. To control the microscope, the LASX software (Leica) was used. To focus fluorescent structures in z-direction, the Autofocus function in LASX was used.

Pluricyte hiPSC-CMs = experiment: hiPSC-CM calcium transient FLIPR assay; details: 10 μM; for time point of detection in hiPSC-CMs: T1 5 min, T2 30 min, T3 90 min after compound addition; for detection as cardiotoxic in hiPSC-CMs (hiPSC-CM positive): 0.1% DMSO, any feature significant at any time point (5, 30, 90 min)
Procedure: hiPSC-CMs beat spontaneously under culture conditions and the beating pattern can be addressed by Ca^2+ dyes reporting the intracellular Ca^2+ concentration that is then measured by the fluorometric imaging plate reader (FLIPR).
This standard protocol was changed at 2 steps: hiPSC-CMs were not spun after thawing and the final concentration was 15 000 instead of 10 000 cells/well.
Twenty microliters of Ca-6 dye solution was added to each well of the assay plate and the assay plate was incubated for 2 h at 37°C, 5% CO2 in the dark. […] After baseline measurement, compounds were added and the fluorescence signal was measured 5, 30, and 90 min after compound treatment. Fifteen microliters of compound dilution was transferred from a compound source plate (40 μM, 0.4% DMSO) to the assay plate (already containing 25 μl cells and 20 μl Ca-6 dye) using FLIPR. The final compound concentration was 10 μM and 0.1% DMSO. Between each measurement the plate was returned to the same incubator. Five extracted features were quantified: beating frequency/beats per minute (bpm), amplitude (ampl), area under the curve (auc), peak width (pkw), and peak width at 10% amplitude (ppkw) are measures informing about the depolarization and repolarization kinetics. […] Each compound was assessed as triplicate at 3 time points after incubation (T1: 5 min, T2: 30 min, T3: 90 min). A measurement was taken prior to compound addition (baseline, not shown). As there was little variability in the baseline measurement, it was not necessary to normalize against baseline. An average of the data of each feature for each time point was fed into the statistical model to determine significant effects.
The LMMs include random effects accounting for the different sources of variation from the experimental design.

[1] = cited from earlier work; for market withdrawal due to cardiovascular adverse effects: ref Onakpoya et al., 2016, Siramshetty et al.; for cardiovascular clinical adverse effects: parent drug and/or metabolites, ref Zhang et al., 2012
AB wildtype larvae = experiment: Acute Toxicity test for NOEC determination in AB wildtype zebrafish larvae, 3 to 96 hpf; type: in vivo, Danio rerio; details: higher concentration than the working concentration
Procedure: Determination of NOEC was achieved through an Acute Toxicity test performed on AB wildtype larvae from 3 to 96 hpf, as previously described ([Cornet et al., 2017]) (see Supplementary Table 1 for NOEC data for each compound). […] Larvae were immersed in E3 with PTU 0.2 mM and Tricaine methanesulfonate (Sigma-Aldrich, No. E10521) at 168 mg/ml working concentration and distributed in 96-well plates in 100 µl per well. Then, 100 µl of compound solution was added at double NOEC concentration to reach the working concentration per compound: NOEC, DMSO 1%, and the final volume of 200 µl per larva per well. Negative control larvae were incubated in 200 µl 1% DMSO. Embryos were allowed to incubate in the compound solution for 4 h before. […] Twelve embryos (1 embryo/well) were imaged for each compound, and the screening of the whole library was distributed over 15 experimental days. On each experimental day, 8 molecules were imaged: 7 drugs and the negative control 1% DMSO, to allow intraexperimental comparison.

hERG = tested on: hERG; parameters: method as in Guo et al., 2007; Shi et al., 2015; details: human patients and rat cardiomyocytes; ref Guo et al., 2007; Shi et al., 2015; cited from earlier work
[2] = 5 dpf larvae, 4 h incubation at NOEC, 1% DMSO, positive if any numerical feature significant or flag incidence above 30%

Row | SMILES | market withdrawal due to cardiovascular adverse effects ([1]; humans) | detection as cardiotoxic in hiPSC-CMs (hiPSC-CM positive) (Pluricyte hiPSC-CMs) | detection as cardiotoxic in zebrafish (zebrafish positive) (zebrafish larvae; in vivo) | other results
1 | CC(C)C[C@H]1C(=O)N2CCC[C@H]2[C@]2(O)O[C@](NC(=O)[C@@H]3C=C4c5cccc6[nH]c(Br)c(c56)C[C@H]4N(C)C3)(C(C)C)C(=O)N12 [Bromocriptine] | withdrawn from the market |  |  | detection in zebrafish due to features other than ventricular BPM (zebrafish larvae; 5 dpf larvae, 4 h incubation at NOEC): detected for effects in features other than BPM; also recorded: enabled the detection; irregular beating of the heart (arrhythmia) (zebrafish larvae; 5 dpf larvae, 4 h incubation at NOEC, representative example): arrhythmia; time point of detection in hiPSC-CMs (Pluricyte hiPSC-CMs): detected only at T3; also recorded: only detected as cardiotoxic through the late assessment
2 | CC(Cc1ccccc1)NCCC(c1ccccc1)c1ccccc1 (stereo not drawn) [Prenylamine] | withdrawn from the market |  |  | developmental defects in the acute toxicity test (AB wildtype larvae): strong developmental defects
3 | CCCN1C[C@H](CSC)C[C@@H]2c3cccc4[nH]cc(c34)C[C@H]21 [Pergolide] | withdrawn from the market | failed to detect; also recorded: neither model detected |  | clinical adverse effect leading to withdrawal ([1]; humans, no reference given): valvulopathies
4 | CC(C)NCC(O)COc1cccc2ccccc12 (stereo not drawn) [Propranolol] |  |  |  | heart rate (ventricular BPM) phenotype (zebrafish larvae; in vivo): bradycardia
5 | CNCC(O)c1ccc(O)c(O)c1 (stereo not drawn) [Racepinephrine] | withdrawn from the market |  | detection | heart rate (ventricular BPM) phenotype (zebrafish larvae; in vivo): tachycardia
6 | COc1cccc2c1C(=O)c1c(O)c3c(c(O)c1C2=O)C[C@@](O)(C(=O)CO)C[C@@H]3O[C@H]1C[C@H](N)[C@H](O)[C@H](C)O1 [Doxorubicin] |  |  |  | cardiotoxicity in humans ([1]; ref Raj et al., 2014): promotes both acute and chronic cardiotoxicity in humans
7 | CS(=O)(=O)c1ccc(C2=C(c3ccccc3)C(=O)OC2)cc1 [Rofecoxib] | withdrawn from the market due to cardiotoxicity concerns | failed to detect; also recorded: did not even detect |  | cardiovascular clinical adverse effects ([1]; humans): heart attack and stroke
8 | CCN[C@@H](C)Cc1cccc(C(F)(F)F)c1 [Dexfenfluramine] | withdrawn from the market due to cardiotoxicity concerns | failed to detect |  | detection as cardiotoxic in zebrafish (zebrafish positive) (zebrafish larvae; [2]): could detect all
9 | CC(C)NCC(O)c1cc(O)cc(O)c1 (stereo not drawn) [Metaproterenol] | withdrawn from the market due to cardiotoxicity concerns |  | could detect all | 
10 | CC(C)COCC(CN(Cc1ccccc1)c1ccccc1)N1CCCC1 (stereo not drawn) [Bepridil] | withdrawn from the market |  | detection | 
11 | O=C(CCCN1CC=C(n2c(=O)[nH]c3ccccc32)CC1)c1ccc(F)cc1 [Droperidol] | withdrawn from the market |  |  | 
12 | COc1ccc(CCN2CCC(Nc3nc4ccccc4n3Cc3ccc(F)cc3)CC2)cc1 [Astemizole] | withdrawn from the market due to cardiotoxicity concerns | TP molecules for both models |  | Bigeminy (zebrafish larvae; in vivo): Bigeminy; cardiovascular clinical adverse effects ([1]; humans): promote cardiovascular clinical adverse effects through both the parent drug and metabolites
13 | CC(C)(Sc1cc(C(C)(C)C)c(O)c(C(C)(C)C)c1)Sc1cc(C(C)(C)C)c(O)c(C(C)(C)C)c1 [Probucol] |  | failed to detect; also recorded: cannot detect | detection | effect on hERG activity (hERG): interfere with hERG activity; arrhythmic phenotypes in hiPSC-CMs (Pluricyte hiPSC-CMs): does not show arrhythmic phenotypes
14 | O=C(O[C@@H]1C[C@@H]2C[C@H]3C[C@H](C1)N2CC3=O)c1c[nH]c2ccccc12 [Dolasetron] |  | failed to detect | could detect all | 
15 | CN(CCOc1ccc(NS(C)(=O)=O)cc1)CCc1ccc(NS(C)(=O)=O)cc1 [Dofetilide] | withdrawn from the market |  | detection | 
16 | COc1cc(N)c(Cl)cc1C(=O)NC1CCN(CCCOc2ccc(F)cc2)CC1OC (stereo not drawn) [Cisapride] | withdrawn from the market due to cardiotoxicity concerns |  | could detect all | Bigeminy (zebrafish larvae; in vivo): Bigeminy
17 | Cc1ccc(-c2cc(C(F)(F)F)nn2-c2ccc(S(N)(=O)=O)cc2)cc1 [Celecoxib] | withdrawn from the market due to cardiotoxicity concerns | failed to detect; also recorded: did not even detect | could detect all | 
18 | CC(C)CC(N(C)C)C1(c2ccc(Cl)cc2)CCC1 (stereo not drawn) [Sibutramine] | withdrawn from the market due to cardiotoxicity concerns | TP molecules for both models |  | detection as cardiotoxic in zebrafish (zebrafish positive) (zebrafish larvae; [2]): could detect all; also recorded: TP molecules for both models; time point of detection in hiPSC-CMs (Pluricyte hiPSC-CMs): detected only at T3; also recorded: only detected as cardiotoxic through the late assessment; cardiovascular clinical adverse effects ([1]; humans): promote cardiovascular clinical adverse effects through both the parent drug and metabolites
19 | CCCCCCCN(CC)CCCC(O)c1ccc(NS(C)(=O)=O)cc1 (stereo not drawn) [Ibutilide] |  |  |  | cardiotoxicity in humans ([1]; ref Stambler et al., 1997): can induce or worsen ventricular arrhythmias with fatal consequences
20 | CN1CCN(C2=Nc3cc(Cl)ccc3Nc3ccccc32)CC1 [Clozapine] | withdrawn from the market |  |  | 
21 | COCCc1ccc(OCC(O)CNC(C)C)cc1 (stereo not drawn) [Metoprolol] |  |  |  | irregular beating of the heart (arrhythmia) (zebrafish larvae; in vivo): arrhythmia
